Measurements from patent US9968633B2, “Stimuli responsive compositions for iron chelation” (WISCONSIN ALUMNI RESEARCH FOUNDATION, priority 2014, dated 2018).
Values joined by “and” are separate entries in the source; they are usually repeats but may differ in a detail not shown here. Equal values may be shown once. Where a name gives a salt, the structure may show the parent alone.

What was measured:
[1] = system: iron-overloaded J774A.1 cells; experiment: Ferritin reduction assay in iron overloaded J774A.1 cells; format: cell-based, mouse; details: for Ferritin decrease: 48 h
Experimental: J774A.1 cells were seeded in 6-well plates at a density of 30,000 cell/well and allowed to settle for 24 h at 37° C., 5% CO2 with DMEM complete medium before treatment. […] Subsequently, cells were washed with PBS and treated with DFO or oxNG-DFO at both 10 μM and 50 μM for 48 h. […] After 48 h incubation with DFO or oxNG-DFO, cells were lysed with cell lysis buffer (150 mM NaCl, 10 mM Tris, 1% Triton X-100 and protease inhibitor cocktail, pH 7.4) and total protein concentration was measured with the BCA protein assay kit. Cellular ferritin concentration was measured with a mouse ferritin ELISA kit. The results are plotted as the ratio of ng of ferritin per μg total protein concentration.
Subsequently, iron-loaded cells were treated for 48 h with 10 μM or 50 μM free DFO or equivalent oxNG2-DFO.

J774A.1 cells = experiment: Cytotoxicity, resazurin assay, normal J774A.1 cells; format: cell-based; details: Mus musculus, J774.A1, 48 h, DFO equivalents, read-out: Concentration giving 50% cell viability
in vitro = details: mouse
Experimental: (§1) Mouse macrophage/monocyte cell line, J774A.1, was purchased from American Type Culture Collection (ATCC). Cells were seeded in 96-well plates at a density of 3,000 cells/well, cultured at 37° C., 5% CO2 with DMEM complete medium (supplemented with 10% (v/v) heat-inactivated FBS, 100 I.U./mL penicillin and 100 μg/mL streptomycin), and allowed to settle for 24 h. Cells were then treated with DFO or oxNG-DFO at equivalent DFO concentrations of 1 mM prepared by 1:3 serial dilutions.
(§2) Cell viability was measured with the metabolism-based resazurin assay. Briefly, the substrate resazurin was dissolved in cell culture medium at a concentration of 44 μM, added to each well (100 μl) and incubated at 37° C. for 4 h. The fluorescence was measured with excitation at 560 nm and emission at 590 nm, on a SpectraMax Gemini EM microplate reader. Readings from the wells without cells were used as Eblank, and the readings from control cells without treatment (Econtrol) represented 100% cell viability. The viability of treated cells at different concentrations can be calculated by the following equation: […]
(§3) Similarly, cytotoxicity was also evaluated in iron-overloaded J774A.1 cells as described above.
(§4) To evaluate the cytotoxicity of the nanogels, cells in complete DMEM medium were treated with equivalent amounts of free DFO or oxNG2-DFO ranging from 0.05-1000 μM and allowed to incubate for 48 h prior to evaluating cytotoxicity with a metabolism-based resazurin assay.

[2] = system: iron-overloaded J774A.1 cells; experiment: cells; details: Mus musculus, J774.A1, 48 h, read-out: Concentration giving 50% cell viability
Experimental: as §1, §2, §3, §4

[3] = system: Human umbilical vein endothelial cells (HUVEC); experiment: Cytotoxicity, resazurin assay, HUVEC; format: cell-based; details: 48 h, DFO equivalents, read-out: Concentration to inhibit 50% cell growth
Experimental: Human umbilical vein endothelial cells (HUVEC) were obtained from Lonza, Inc., and cultured at 37° C./5% CO2 in EGM-2 complete medium. For the cytotoxicity assay, cells were seeded into 96-well plates at a density of 3,000 cell/well and allowed to equilibrate for 2 days before treatment. […] Readings from the wells without cells were used as blanks (Eblank), and the readings taken from control cells without treatment (Econtrol) 1 represented 100% cell viability. The viability of treated cells at each concentration can be calculated by the following equation: Cell Viability=100×(Esample˜Eblank)/(Econtrol˜Eblank)%

Row | Compound | Cellular ferritin expression after iron loading [1] [ng/µg] | IC50 (J774A.1 cells) [µM] | viability at 48 h, 10 μM (in vitro) [%] | viability at 48 h, 50 μM (in vitro) [%] | IC50 [2] [µM] | Cellular ferritin level [1] | Ferritin decrease ([1]; 10 μM DFO or equivalent) [%] | Ferritin decrease ([1]; 50 μM DFO or equivalent) [%] | IC50 [3] [µM]
1 | Ferric ammonium citrate [FAC] | 8.51 | – | – | – | – | – | – | – | –
2 | CC(=O)N(O)CCCCCNC(=O)CCC(=O)N(O)CCCCCNC(=O)CCC(=O)N(O)CCCCCN [DFO, Deferoxamine mesylate] | – | ~10 | ~50 | < 50 | ~15 | 5.33 ng/μg total protein and 2.84 ng/μg total protein | 37.4 | 66.6 | ~2
